This note sets out measurements from ChEMBL document CHEMBL1158123, “Rubrisandrins A and B, lignans and related anti-HIV compounds from Schisandra rubriflora” (J Nat Prod, 2006).

Data set [1] deals with H9. The data set is described as follows: Cytotoxicity against human H9 cells after 4 days. It counts as cell-based. The conditions noted are these: H9, 96 h.
Data set [2] in a line: Therapeutic index, ratio of IC50 for human H9 cells to EC50 for HIV1 3B. The conditions noted are these: read-out: Ratio IC50/EC50. The class given is cell-based.
Data set [3] concerns Human immunodeficiency virus 1. Kind of data set: Antiviral activity against HIV1 3B in H9 cells after 4 days by p24-antigen ELISA. It counts as functional, organism-based. Conditions: for EC50: Human immunodeficiency virus 1, 3B, H9, 96 h.

Molecules are shown by their SMILES. The source made the active and inactive calls. The calls are words filed in the database; no cut-off is given here.

`COc1cc2c(c(OC)c1OC)-c1c(cc3c(c1O)OCO3)C[C@H](C)[C@H](C)C2` came in with an IC50 in data set [1] of 47.1 µM. The selectivity ratio in data set [2] worked out at 19.4. In data set [3], it took 2.4 µM to reach a half-maximal effect (EC50).
On to `C/C=C(/C)C(=O)O[C@H]1c2cc(OC)c(OC)c(OC)c2-c2c(cc3c(c2OC)OCO3)C[C@H](C)[C@]1(C)O` [SCHISANTHERIN B], for which the IC50 in data set [1] is > 49 µM. For the same compound, the selectivity ratio in data set [2] came to 1.2. The same compound registered an EC50 in data set [3] of 40 µM.
In data set [1], `COc1cc2c(c(O)c1OC)-c1c(cc3c(c1OC)OCO3)C[C@H](C)[C@H](C)C2` (racemic) showed an IC50 of 44.5 µM. Also, the selectivity ratio in data set [2] is > 68. Besides, the EC50 in data set [3] is < 0.65 µM.
As to `COc1cc2c(c(OC)c1OC)-c1c(cc(OC)c(OC)c1OC)C[C@H](C)[C@@H](C)C2` [DEOXYSCHISANDRIN], the IC50 in data set [1] was > 60 µM. In addition, the outcome in data set [3] was inactive.
The matching figures for `COc1cc2c(c(OC)c1OC)-c1c(cc(OC)c(OC)c1OC)C[C@](C)(O)[C@@H](C)C2` [SCHIZANDRIN]: > 58 µM and “inactive”.
`COc1cc2c(c(O)c1OC)-c1c(cc(OC)c(OC)c1OC)C[C@@H](C)[C@@H](C)C2` [SCHISANHENOL]: the IC50 in data set [1] was found to be 42 µM. In addition, in data set [2], the selectivity ratio came out at 7.4. In data set [3], this compound returned an EC50 of 5.7 µM.
As for `C/C=C(\C)C(=O)O[C@@H]1c2cc(OC)c(OC)c(OC)c2-c2c(cc3c(c2OC)OCO3)C[C@H](C)[C@@]1(C)O` [TIGLOYLGOMISIN P], the IC50 in data set [1] was > 49 µM. The selectivity ratio in data set [2] was 1.3. The response in data set [3] was half-maximal at 37 µM (EC50).
Regarding `Cc1cn([C@H]2C[C@H](N=[N+]=[N-])[C@@H](CO)O2)c(=O)[nH]c1=O` [ZIDOVUDINE], the EC50 in data set [3] is 0.023 µM.
Turning to `C/C=C(/C)C(=O)O[C@@H]1c2cc(OC)c(OC)c(OC)c2-c2c(cc3c(c2OC)OCO3)C[C@H](C)[C@@]1(C)O` [ANGELOYLGOMISIN P], the IC50 in data set [1] is > 49 µM. For the same compound, the outcome in data set [3] was inactive.
